Test results as given in ChEMBL document CHEMBL3044912, “Nematicidal efficacy of isothiocyanates against root-knot nematode Meloidogyne javanica in cucumber” (2011).
Converted amounts (≈) assume the structure as drawn. The source made the active and inactive calls. The rule behind the calls is not given here.

What was measured:
[1] = tested on: Meloidogyne javanica; assay: Nematicidal activity against Meloidogyne javanica J2 (root-knot nematode) assessed as mortality rate at 5 ug/mL (vapor concentration in the air, weight/volume) at 25 +/- 2 degC measured after 48 hr; assay type: functional
[2] = tested on: Meloidogyne javanica; assay: Nematicidal activity against Meloidogyne javanica J2 (root-knot nematode) assessed as mortality rate at 5 ug/mL (vapor concentration in the air, weight/volume) at 25 +/- 2 degC measured after 72 hr; assay type: functional
[3] = tested on: Meloidogyne javanica; assay: Nematicidal activity against Meloidogyne javanica J2 (root-knot nematode) assessed as mortality rate compound treated as vapor at 25 +/- 2 degC; assay type: functional; settings: for LC50: Meloidogyne javanica
[4] = tested on: Meloidogyne javanica; assay: Nematicidal activity against Meloidogyne javanica (root-knot nematode) inoculated in cucumber plant assessed as reduction in galls compound treated in soil 7 days before planting by pot experiment; assay type: functional
[5] = tested on: Meloidogyne javanica; assay: Nematicidal activity against Meloidogyne javanica (root-knot nematode) inoculated in cucumber plant assessed as reduction in galls at 2 ml/kg of soil dosed 7 days before planting by pot experiment; assay type: functional, organism-based
[6] = tested on: Meloidogyne javanica; assay: Nematicidal activity against Meloidogyne javanica (root-knot nematode) inoculated in cucumber plant assessed as reduction in galls at 0.5 ml/kg of soil dosed 7 days before planting by pot experiment; assay type: functional, organism-based
[7] = tested on: Meloidogyne javanica; assay: Nematicidal activity against Meloidogyne javanica (root-knot nematode) inoculated in cucumber plant assessed as reduction in galls at 1 ml/kg of soil dosed 7 days before planting by pot experiment; assay type: functional, organism-based
[8] = tested on: Meloidogyne javanica; assay: Nematicidal activity against Meloidogyne javanica (root-knot nematode) infected in cucumber field assessed as reduction in root gallling at 2 kg/ha by field plot experiment; assay type: functional, organism-based
[9] = tested on: Meloidogyne javanica; assay: Nematicidal activity against Meloidogyne javanica (root-knot nematode) inoculated in cucumber plant assessed as reduction in Meloidogyne javanica (root-knot nematode)numbers at 0.5 to 2 ml/kg of soil dosed 7 days before planting by pot experiment; assay type: functional, organism-based
[10] = tested on: Meloidogyne javanica; assay: Nematicidal activity against Meloidogyne javanica (root-knot nematode) infected in cucumber field assessed as reduction in root gallling at 5 kg/ha by field plot experiment; assay type: functional, organism-based

Structure (SMILES) | mortality at 5 µg/mL [1] [%] | mortality at 5 µg/mL [2] [%] | LC90 [3] [µg/mL] | LC50 [3] [µg/mL] | LD50 [4] [mL] | Activity [5] | Activity [6] | Activity [7] | inhibition [8] | inhibition [9] | inhibition [10]
CC(N=C=S)c1ccccc1 (centres undefined) [1-PHENYLETHYL ISOTHIOCYANATE] | 58.6 | 76.6 | 8.14 (≈ 49.9 µM) | 4.24 (≈ 26 µM) |  |  |  |  |  |  | 
C=CC(=O)N=C=S [ACRYLOYL ISOTHIOCYANATE] | 71 | 92.1 | 4.63 (≈ 40.9 µM) | 2.53 (≈ 22.4 µM) | 0.48 | Active | Active | Active | Active | Active | 
C=CCN=C=S [ALLYL ISOTHIOCYANATE] | 70.1 | 90.5 | 4.94 (≈ 49.8 µM) | 2.76 (≈ 27.8 µM) | 0.49 | Active | Active | Active | Active | Active | 
S=C=NCc1ccccc1 [BENZYL ISOTHIOCYANATE] | 32.2 | 70.2 | 8.55 (≈ 57.3 µM) | 4.48 (≈ 30 µM) |  |  |  |  |  |  | 
N#CSCc1ccccc1 [BENZYL THIOCYANATE] | 30.1 | 66.4 | 8.71 (≈ 58.4 µM) | 4.64 (≈ 31.1 µM) |  |  |  |  |  |  | 
CC/C=C/N=C=S [BUTENYL ISOTHIOCYANATE] | 20.6 | 49.9 |  |  |  |  |  |  |  |  | 
CCCCN=C=S [BUTYL ISOTHIOCYANATE] | 28.1 | 58.6 |  |  |  |  |  |  |  |  | 
CCN=C=S [ETHYL ISOTHIOCYANATE] | 66.9 | 88.2 | 5.72 (≈ 65.6 µM) | 3.05 (≈ 35 µM) |  |  |  |  |  |  | 
CC(C)/C=C/N=C=S [ISOAMYLENE ISOTHIOCYANATE] | 27.4 | 56.9 |  |  |  |  |  |  |  |  | 
CC(C)N=C=S [ISOPROPYL ISOTHIOCYANATE] | 22.6 | 42.9 |  |  |  |  |  |  |  |  | 
CC(C)CC(=O)N=C=S [ISOVALERYL ISOTHIOCYANATE] | 26.4 | 58.5 |  |  |  |  |  |  |  |  | 
CNC(=S)[S-].[Na+] [METAM SODIUM] | 72.2 | 93.4 | 3.65 | 2.12 |  |  |  |  |  |  | Active
S=C=NCCc1ccccc1 [PHENETHYLISOTHIOCYANATE] | 60.8 | 79.6 | 6.96 (≈ 42.6 µM) | 4.15 (≈ 25.4 µM) |  |  |  |  |  |  | 
S=C=Nc1ccccc1 [PHENYLISOTHIOCYANATE] | 25.6 | 58.2 |  |  |  |  |  |  |  |  | 
CCCN=C=S [PROPYL ISOTHIOCYANATE] | 21.5 | 40.2 |  |  |  |  |  |  |  |  | 
